Literature values in patent publication US20060264381A1, “Methods of treating obsessive compulsive disorder” (priority 2005, published 2006).

Key:
[1] = system: Gp1 mGluR5 on cultured hippocampal neurons
[2] = system: cultured cortical neurons; conditions: cultures prepared from Fmr1 knockout (KO) mice lacking FMRP
[3] = system: synaptosomes prepared from the cortex of Fmr1 KO mice
[4] = system: Drosophila mGluR, DmGluRA; conditions: flies lacking dfmr1 raised with food containing drug
mGluR5 = target: T1, mGluR5 (Mus musculus, UniProt Q3UVX5); conditions: slices from the Fmr1 KO mouse
T1 construct: from tissue; host or cells: brain slices from Fmr1 knockout mouse (hippocampal area CA3 by context)
T1 sequence (Q3UVX5 19-1203): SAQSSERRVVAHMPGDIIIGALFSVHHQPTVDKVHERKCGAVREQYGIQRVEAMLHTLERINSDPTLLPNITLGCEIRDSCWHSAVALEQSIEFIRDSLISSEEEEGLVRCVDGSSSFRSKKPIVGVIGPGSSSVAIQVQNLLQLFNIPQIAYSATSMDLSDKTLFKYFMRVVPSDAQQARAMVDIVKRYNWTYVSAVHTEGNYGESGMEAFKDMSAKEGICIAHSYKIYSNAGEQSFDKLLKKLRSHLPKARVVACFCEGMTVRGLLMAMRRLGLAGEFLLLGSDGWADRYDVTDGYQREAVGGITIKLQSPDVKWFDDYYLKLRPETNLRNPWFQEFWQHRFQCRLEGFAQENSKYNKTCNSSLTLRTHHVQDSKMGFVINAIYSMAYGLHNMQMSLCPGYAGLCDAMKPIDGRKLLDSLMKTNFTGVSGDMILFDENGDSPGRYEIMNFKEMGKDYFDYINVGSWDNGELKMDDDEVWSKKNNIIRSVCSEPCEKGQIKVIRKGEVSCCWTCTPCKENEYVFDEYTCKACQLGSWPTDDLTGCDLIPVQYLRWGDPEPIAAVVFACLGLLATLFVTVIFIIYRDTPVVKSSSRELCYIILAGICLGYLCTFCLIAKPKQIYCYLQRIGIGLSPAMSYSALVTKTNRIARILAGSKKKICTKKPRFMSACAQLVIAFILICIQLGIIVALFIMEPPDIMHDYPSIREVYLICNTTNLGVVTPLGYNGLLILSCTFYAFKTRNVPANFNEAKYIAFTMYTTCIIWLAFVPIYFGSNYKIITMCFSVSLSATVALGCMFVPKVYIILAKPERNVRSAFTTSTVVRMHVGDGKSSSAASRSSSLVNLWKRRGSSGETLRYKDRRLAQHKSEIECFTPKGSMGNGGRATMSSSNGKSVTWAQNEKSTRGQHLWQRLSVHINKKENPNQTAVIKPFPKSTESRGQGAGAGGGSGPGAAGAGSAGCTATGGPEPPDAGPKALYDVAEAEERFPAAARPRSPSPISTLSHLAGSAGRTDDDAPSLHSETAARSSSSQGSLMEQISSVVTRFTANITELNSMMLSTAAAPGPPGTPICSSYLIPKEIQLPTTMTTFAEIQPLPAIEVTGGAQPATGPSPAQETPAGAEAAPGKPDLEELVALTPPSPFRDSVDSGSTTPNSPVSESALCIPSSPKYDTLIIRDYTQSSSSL

Row | Compound | delivery of FMRP to dendrites ([1]; cultured hippocampal neurons) | loss of AMPA receptors from synapses ([1]; cultured hippocampal neurons) | proportion of long, thin dendritic spines ([1]; prolonged treatment of hippocampal neurons) | PSD-95 levels [2] | polyribosome assembly [3] | rescue of phenotypes in mutant flies (altered courtship behavior, decreased memory in conditioned courtship assay, mushroom body structure) [4] | ictal-like activity emerging spontaneously in slices (mGluR5)
1 | N[C@@H](C(=O)O)c1cc(O)cc(O)c1 (racemic) [DHPG, (R,S)-3,5-dihydroxyphenylglycine] | triggers the delivery of FMRP to dendrites | stimulates the loss of AMPA receptors from synapses | increased the proportion of long, thin dendritic spines | fails to increase PSD-95 levels | fails to stimulate polyribosome assembly | – | –
2 | Cc1cccc(C#Cc2ccccc2)n1 [MPEP, 2-methyl-6-(phenylethynyl)-pyridine] | – | – | – | – | – | rescued | reversed
